# Results published in patent US20060140857A1, “Method of the administration of drugs with binding affinity for plasma protein and preparation to be used in the method” (NIHON MEDI-PHYSICS CO., LTD., priority 1999, published 2006).
# What was measured:
# [1] = Free fraction of 99mTc-MAG3 in rat blood after administration of bucolome; format: in vivo; conditions: rats, bucolome loading 20 mg/kg, FIG. 4
# Procedure: In the control group and test group with bucolome loading of 20 mg/kg of body weight, wherein the dose and other conditions were the same as mentioned above, except the decapitation time was prescribed at 2, 5 and 10 minutes, administrations and decapitations of rats were conducted so that 3-5 ml of blood per one rat were collected. Serum was separated using a sample tube, after that the free fraction was determined by the procedures as described in Example 1.
# [2] = Biodistribution of 99mTc-MAG3 in rat loaded with bucolome; format: in vivo, Wister-strain rat; conditions: rats
# Procedure: Effect of second drug on biodistribution of ^99mTc-MAG3 in rat was examined using the control group and the test group with bucolome loading. ^99mTc-MAG3 (740 kBq/100 μl) was administered to the tail vein of Wister-strain rat. The rats were decapitated at 2, 5, 10 and 15 minutes after administration of ^99mTc-MAG3, then the blood and the organs of interest were excised. After measured the weight of these orgams, the radioactivities were determined. After decay correction of the radioactivity, the accumulation ratios (% dose/organ and % dose/g of the tissue) were determined.
# As for the rat of test group loaded with bucolome, 5 minutes before the administration of ^99mTc-MAG3, 20 mg/kg of body weight or 100 mg/kg of body weight of bucolome was administered to the tail vein.
# serum albumin = serum albumin (Homo sapiens, UniProt P02768); test: Displacement of 99mTc-ECD binding to plasma protein, human serum; conditions: second drug 200 μM and 400 μM
# [3] = molecular target: human serum albumin (HSA) (Homo sapiens, UniProt P02768); test: Displacement of 99mTc-MAG3 binding to serum albumin, human serum, ultrafiltration; conditions: human serum
# Procedure: (§1) Displacement test of ^99mTc-MAG3 binding to serum albumin was conducted as follows by use of human serum or rat serum and site-specific drugs (second drugs) with binding affinity for the binding site I or site II on albumin.
# First, albumin content in a normal human serum was measured previously, and the concentration of the human serum albumin (HSA) was adjusted to 500 μM by phosphate buffer (pH=7.4).
# Further, a site-specific drug with the binding affinity for the site I or the site II on HSA was added to the above-mentioned serum solution, as in the form of a methanol solution or an aqueous solution. As the sample solution for control group, only methanol or water was added to the above-mentioned serum solution.
# Next, a certain amount of ^99mTc-MAG3 (about 740 kBq/20 μl) was added to each of the sample and a certain amount (20-50 μl) of the sample was taken out as the specimen before ultrafiltration. […] Then, 20-50 μl each of the filtrates was taken out as the specimen after ultrafiltration. Radioactivities (cpm) of the specimens before and after ultrafiltration were measured, and the free fraction (%) of ^99mTc-MAG3 was calculated by the following equation: free fraction of ^99mTc-MAG3 (%)=[A]/[B] [A]: Radioactivity (cpm) after ultrafiltration, [B]: Radioactivity (cpm) before ultrafiltration
# plasma protein = conditions: ordinary clinical dose; cited from earlier work
# rat serum albumin (RSA) = rat serum albumin (RSA) (Rattus norvegicus, UniProt P02770); test: Displacement of 99mTc-MAG3 binding to serum albumin, rat serum, ultrafiltration; conditions: rat serum, RSA 375 μM, control without second drug
# Procedure: as §1
# Next, a certain amount of ^99mTc-MAG3 (about 740 kBq/20 μl) was added to each of the sample and a certain amount (20-50 μl) of the sample was taken out as the specimen before ultrafiltration. Each 0.9 mL of the samples was put in a ultrafilter and conducted ultrafiltration under the condition of 1500Xg, for 10 minutes. Then, 20-50 μl each of the filtrates was taken out as the specimen after ultrafiltration. Radioactivities (cpm) of the specimens before and after ultrafiltration were measured, and the free fraction (%) of ^99mTc-MAG3 was calculated by the following equation: free fraction of ^99mTc-MAG3 (%)=[A]/[B] [A]: Radioactivity (cpm) after ultrafiltration, [B]: Radioactivity (cpm) before ultrafiltration
# [4] = Renography of 99mTc-MAG3 in rats with bucolome loading; format: in vivo, Wistar-strain rats
# Procedure: By using Wistar-strain rats (body weight: 400 g), displacement effect of bucolome on ^99mTc-MAG3 was examined by means of renography in rats. Prism 3000 (picker) was used as an apparatus.
# The dynamic imaging was conducted 10 seconds/scan for 20 minutes. About 2 hours after, confirming the urination and decrease in background radioactivity, then bucolome was loaded to the same rat. Bucolome was dissolved in ethanol and adjusted as in the dose of 20 mg/kg, then intravenously injected by using a microinjector taken in 10 minutes. About 5 minutes after finish of the intravenous injection of bucolome, ^99mTc-MAG3 was intravenously injected through the catheter and the renogram was taken similarly by 10 seconds/scan for 20 minutes. […] On the other hand, in the test group with bucolome loading, the radioactivity curve rose quickly, and the peak time was 120 seconds which was a half length of that of the control group. Renal function is usually analyzed by determination of the peak time in this renogram and a slope of the straight line in a linear regression. By inhibiting the binding ability of ^99mTc-MAG3 to plasma protein, the renogram was obtained as close to an ideal and was apploximated to a simple curve. Thus, the functional analysis of the kidney can be easily carried out, and the time for functional analysis can be shortened by shortening the peak time.
# [5] = 20 mg/kg bucolome loading, 2 minutes
# [6] = 20 mg/kg bucolome loading, 5 minutes
# [7] = 20 mg/kg bucolome loading, 10 minutes
# [8] = 20 mg/kg bucolome loading, 15 minutes
# [9] = 100 mg/kg bucolome loading, 10 minutes
# [10] = control group of Table 6, 10 minutes
# [11] = Rat 1, test group with bucolome loading 20 mg/kg
# [12] = Rat 2, test group with bucolome loading 20 mg/kg
# human serum albumin (HSA), sequence (P02768 25-609): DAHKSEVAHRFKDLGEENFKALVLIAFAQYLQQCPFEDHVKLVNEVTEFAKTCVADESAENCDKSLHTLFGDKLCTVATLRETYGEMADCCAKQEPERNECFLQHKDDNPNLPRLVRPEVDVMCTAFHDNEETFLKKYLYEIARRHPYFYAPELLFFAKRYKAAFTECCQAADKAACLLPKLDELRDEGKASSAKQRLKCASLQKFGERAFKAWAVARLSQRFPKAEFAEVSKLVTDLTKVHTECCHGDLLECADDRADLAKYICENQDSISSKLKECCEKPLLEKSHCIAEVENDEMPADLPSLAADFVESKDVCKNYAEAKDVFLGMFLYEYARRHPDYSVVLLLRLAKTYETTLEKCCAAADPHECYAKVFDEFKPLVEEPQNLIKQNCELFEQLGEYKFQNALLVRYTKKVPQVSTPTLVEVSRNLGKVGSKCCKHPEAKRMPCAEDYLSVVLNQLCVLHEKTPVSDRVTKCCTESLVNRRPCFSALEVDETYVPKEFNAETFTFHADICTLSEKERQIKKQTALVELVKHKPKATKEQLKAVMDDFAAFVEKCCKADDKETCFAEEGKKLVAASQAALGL
# rat serum albumin (RSA), sequence (P02770 25-608): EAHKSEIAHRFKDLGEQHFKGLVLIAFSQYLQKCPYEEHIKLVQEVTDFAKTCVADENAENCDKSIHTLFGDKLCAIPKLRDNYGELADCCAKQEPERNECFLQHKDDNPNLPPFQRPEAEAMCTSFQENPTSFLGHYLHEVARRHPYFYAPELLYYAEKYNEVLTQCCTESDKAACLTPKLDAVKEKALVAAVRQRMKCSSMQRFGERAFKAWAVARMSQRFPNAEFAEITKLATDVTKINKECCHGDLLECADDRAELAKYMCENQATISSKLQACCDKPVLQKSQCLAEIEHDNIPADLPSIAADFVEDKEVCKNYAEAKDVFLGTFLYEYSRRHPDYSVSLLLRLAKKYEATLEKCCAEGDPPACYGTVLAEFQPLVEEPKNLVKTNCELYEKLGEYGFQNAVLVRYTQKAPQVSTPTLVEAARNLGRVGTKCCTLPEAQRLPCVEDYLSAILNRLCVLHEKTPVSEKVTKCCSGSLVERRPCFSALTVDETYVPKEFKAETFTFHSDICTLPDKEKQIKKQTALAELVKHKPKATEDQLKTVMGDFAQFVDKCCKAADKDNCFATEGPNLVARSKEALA
# serum albumin, sequence (P02768 25-609): as the sequence (P02768 25-609) above
structure (smiles),measurement,setting,value
"CCCCC1C(=O)NC(=O)N(C2CCCCC2)C1=O (stereo not drawn) [bucolome, 5-n-butyl-1-cyclohexyl-2,4,6-trioxoperhydropyrimidine]",effect on free fraction of 99mTc-MAG3 in vivo,[1],remarkably increased
same,effect on blood clearance of 99mTc-MAG3,"[2]; bucolome loading, FIG. 3",accelarated
same,change of free fraction of 99mTc-ECD compared with control,serum albumin,also incresed
same,change of free fraction of 99mTc-MAG3 compared with control,[3]; second drug added,significantly increased
"O=C(O)C[N]1C(=O)C[N]2C(=O)C[N]3C(=O)C[S][99Tc-]132=[O] [99mTc-MAG3, mercaptoacetylglycylglycylglycine labeled with 99m-technetium]",fraction of 99mTc-MAG3 bound to plasma protein,plasma protein,about 90%
same,"Biodistribution of 99mTc-MAG3, Blood",[2]; [5],1.050 ± 0.057 % dose/g tissue
same,"Biodistribution of 99mTc-MAG3, Urine",[2]; [5],0.802 ± 0.709 % dose/organ
same,"Biodistribution of 99mTc-MAG3, Blood",[2]; [6],0.544 ± 0.043 % dose/g tissue
same,"Biodistribution of 99mTc-MAG3, Urine",[2]; [6],2.692 ± 2.721 % dose/organ
same,"Biodistribution of 99mTc-MAG3, Blood",[2]; [7],0.186 ± 0.076 % dose/g tissue
same,"Biodistribution of 99mTc-MAG3, Urine",[2]; [7],14.792 ± 4.307 % dose/organ
same,"Biodistribution of 99mTc-MAG3, Blood",[2]; [8],0.152 ± 0.088 % dose/g tissue
same,"Biodistribution of 99mTc-MAG3, Urine",[2]; [8],23.969 ± 18.025 % dose/organ
same,"Biodistribution of 99mTc-MAG3, Blood",[2]; [9],0.047 ± 0.044 % dose/g tissue
same,"Biodistribution of 99mTc-MAG3, Brain",[2]; [9],0.001 ± 0.001 % dose/g tissue
same,"Biodistribution of 99mTc-MAG3, Heart",[2]; [9],0.014 ± 0.010 % dose/g tissue
same,"Biodistribution of 99mTc-MAG3, Kidney",[2]; [9],0.651 ± 0.324 % dose/g tissue
same,"Biodistribution of 99mTc-MAG3, Liver",[2]; [9],0.033 ± 0.026 % dose/g tissue
same,"Biodistribution of 99mTc-MAG3, Lung",[2]; [9],0.043 ± 0.037 % dose/g tissue
same,"Biodistribution of 99mTc-MAG3, Pancreas",[2]; [9],0.006 ± 0.007 % dose/g tissue
same,"Biodistribution of 99mTc-MAG3, Spleen",[2]; [9],0.009 ± 0.008 % dose/g tissue
same,"Biodistribution of 99mTc-MAG3, Stomach",[2]; [9],0.040 ± 0.036 % dose/g tissue
same,"Biodistribution of 99mTc-MAG3, Blood",[2]; [10],0.317 ± 0.073 % dose/g tissue
same,"Biodistribution of 99mTc-MAG3, Brain",[2]; [10],0.010 ± 0.001 % dose/g tissue
same,"Biodistribution of 99mTc-MAG3, Heart",[2]; [10],0.101 ± 0.016 % dose/g tissue
same,"Biodistribution of 99mTc-MAG3, Kidney",[2]; [10],6.191 ± 0.187 % dose/g tissue
same,"Biodistribution of 99mTc-MAG3, Liver",[2]; [10],0.151 ± 0.001 % dose/g tissue
same,"Biodistribution of 99mTc-MAG3, Lung",[2]; [10],0.195 ± 0.030 % dose/g tissue
same,"Biodistribution of 99mTc-MAG3, Pancreas",[2]; [10],0.046 ± 0.000 % dose/g tissue
same,"Biodistribution of 99mTc-MAG3, Spleen",[2]; [10],0.052 ± 0.008 % dose/g tissue
same,"Biodistribution of 99mTc-MAG3, Stomach",[2]; [10],0.024 ± 0.024 % dose/g tissue
same,"Biodistribution of 99mTc-MAG3, Blood","[2]; control group, 2 Minutes",1.482 ± 0.137 % dose/g tissue
same,"Biodistribution of 99mTc-MAG3, Urine","[2]; control group, 2 Minutes",0.236 ± 0.119 % dose/organ
same,"Biodistribution of 99mTc-MAG3, Blood","[2]; control group, 5 Minutes",0.968 ± 0.163 % dose/g tissue
same,"Biodistribution of 99mTc-MAG3, Urine","[2]; control group, 5 Minutes",1.309 ± 0.941 % dose/organ
same,"Biodistribution of 99mTc-MAG3, Blood","[2]; control group, 10 Minutes",0.387 ± 0.018 % dose/g tissue
same,"Biodistribution of 99mTc-MAG3, Urine","[2]; control group, 10 Minutes",16.872 ± 4.042 % dose/organ
same,"Biodistribution of 99mTc-MAG3, Blood","[2]; control group, 15 minutes",0.160 ± 0.022 % dose/g tissue
same,"Biodistribution of 99mTc-MAG3, Urine","[2]; control group, 15 minutes",38.419 ± 2.150 % dose/organ
same,99mTc-MAG3 free fraction (%),rat serum albumin (RSA),24.75%
same,Renogram Peak time,"[4]; FIG. 7, control group",240 s
same,Renogram Peak time,"[4]; FIG. 7, test group with bucolome loading",120 s
same,Renogram Peak time,"[4]; Rat 1, control group",240 s
same,Renogram Slope (Count/second),"[4]; Rat 1, control group",1.166 Count/second
same,Renogram Peak time,[4]; [11],110 s
same,Renogram Slope (Count/second),[4]; [11],2.208 Count/second
same,Renogram Peak time,"[4]; Rat 2, control group",170 s
same,Renogram Slope (Count/second),"[4]; Rat 2, control group",0.941 Count/second
same,Renogram Peak time,[4]; [12],120 s
same,Renogram Slope (Count/second),[4]; [12],2.000 Count/second
same,99mTc-MAG3 free fraction (%),"[3]; HSA 500 μM, control without second drug",10.2%
